Experimental findings from US4978666A, “Optically active piperazine derivative” (Nippon Chemiphar Co., Ltd., priority 1988, dated 1990) are described below.

Where a name gives a salt, the structure may show the parent alone.

Holding throughout (format): in vivo
One data set deals with vertebral blood flow. The experiment in a line: Peripheral vasodilating effect (vertebral blood flow increase in anesthetized dogs). Particulars: i.v., anesthetized mongrel dogs. The text has this:
(§1) The peripheral vasodilating effect (action for increase of blood flow of vertebrae) and acute toxicity of (-)-1-(3,4-dimethoxyphenyl)-2-(4-diphenylmethylpiperazinyl)ethanol dihydrochloride according to the invention, (+)-1-(3,4-dimethoxyphenyl)-2-(4-diphenylmethylpiperazinyl)ethanol dihydrochloride, and (±)-1-(3,4-dimethoxyphenyl)-2-(4-diphenylmethylpiperazinyl)ethanol dihydrochloride are illustrated by the following examples.
Mongrel Dogs of both sexes each weighing about 10 kg were anesthetized with sodium pentobarbital (35 mg/kg, i.v.). Artificial respiration was performed with room air. The vertebral blood flow and femoral blood flow were measured by an electromagnetic flowmeter (avilable from Nihon Koden, MF-27 and MFV-1100) with flow probes. The blood pressure and heart rate were measured at the same time. […]

Data set [1] in a line: Acute toxicity (oral LD50 in rats). Particulars: rat, in vivo, po, SD-strain female rats 150 to 200 g, observed for 2 weeks.
Excerpt: as §1
(§2) Each of the (-)-, (+)- and (±)-piperazine derivatives were orally administered to SD-strain female rats each having a body weight of 150 to 200 g.

The test system of another data set is SD-strain female rats. The experiment in a line: Acute toxicity (oral LD50 in rats). Particulars: SD-strain female rats 150 to 200 g, observed for 2 weeks, 20160 min, dihydrochloride.
Excerpt: as §1, §2

Data set [2] can be described thus: Concentration in blood after administration to beagle dogs. Particulars: as compared with administration of the (+)-derivative.

`COc1ccc(C(O)CN2CCN(C(c3ccccc3)c3ccccc3)CC2)cc1OC` (racemic) [(±)-Derivative, (±)-1-(3,4-dimethoxyphenyl)-2-(4-diphenylmethylpiperazinyl)ethanol dihydrochloride]: the “Percentage of vertebral blood flow increase” value in the data set with vertebral blood flow (0.03 mg/kg) was 16.9%; in the data set on vertebral blood flow (0.1 mg/kg), 43.9%. For the same compound, the LD50 at 336 h in data set [1] is 29.1 mg/kg.

As to `COc1ccc(C(O)CN2CCN(C(c3ccccc3)c3ccccc3)CC2)cc1OC` (single isomer, unassigned; (+)) [(+)-Derivative, (+)-1-(3,4-dimethoxyphenyl)-2-(4-diphenylmethylpiperazinyl)ethanol dihydrochloride], the “Percentage of vertebral blood flow increase” value in the data set with vertebral blood flow (0.03 mg/kg, dihydrochloride) was 13.4%; in the data set with vertebral blood flow (0.1 mg/kg, dihydrochloride), 34.3%. The compound further showed an LD50 in the data set on SD-strain female rats of 14.3 mg/kg.

`COc1ccc(C(O)CN2CCN(C(c3ccccc3)c3ccccc3)CC2)cc1OC` (single isomer, unassigned; (-)) [(-)-Derivative, (-)-1-(3,4-dimethoxyphenyl)-2-(4-diphenylmethylpiperazinyl)ethanol dihydrochloride]: the “Percentage of vertebral blood flow increase” value in the data set on vertebral blood flow (0.03 mg/kg, dihydrochloride) is recorded as 22.9%; with vertebral blood flow (0.1 mg/kg, dihydrochloride), 48.0%. The “concentration in blood (determined from an area of a measured blood concentration curve)” value in data set [2] was “high concentration in blood”. Moreover, the LD50 in the data set with SD-strain female rats was found to be 45.4 mg/kg.
